Laboratory results from patent US20260272964A1, “PENTAGALLOYL GLUCOSE DERIVED FROM SCHINUS PLANTS AND METHODS OF USE” (Emory University, priority 2020, published 2026).
Values after ≈ are worked out from the molar mass of the structure shown. Values joined by “and” are separate entries in the source; they are usually repeats but may differ in a detail not shown here. Identical values can stand only once. Like-named read-outs stand apart in the source and are kept apart here.

How the values were obtained:
A. baumannii = experiment: Growth inhibition assays with media supplementation; format: cell-based, Acinetobacter baumannii
Protocol: PGG antibacterial activity may be attributed to its chelation of iron. One can use a colorimetric assay to quantify binding of free iron by PGG. One can perform bioassays with iron supplementation and 2,2′-dipyridyl, a known iron chelator, as a control. To elucidate potential mechanisms of action of PGG, A. baumannii growth inhibition and time-kill assays were carried out with various supplements in combination with PGG: 0.02% oleic acid, 0.02% polysorbate 80, 1 mM iron (II) sulfate, and 1 mM iron (III) sulfate. […] Furthermore, PGG combined with oleic acid, polysorbate 80, and iron (II) sulfate treatments had roughly tenfold, 100-fold, and 1,000-fold higher CFU/mL measurements, respectively, than PGG alone at the 24 h timepoint.

A. baumannii AB5075 [1] = experiment: Restoration assay (iron addition to PGG-treated wells); format: cell-based, Acinetobacter baumannii; details: AB5075, 1 mM iron (II) or iron (III) sulfate on PGG-treated wells, 24-48 h
Protocol: To test for the restoration of bacterial growth after iron addition, iron (II) and iron (III) sulfate were spread at concentrations of 1 mM on PGG-treated A. baumannii AB5075 wells that had no visible colonies after 24 h of incubation. Immediately after addition of iron to the agar, all wells containing PGG obtained a purple color, increasing in darkness with increasing PGG concentration.

A. baumannii AB5075 [2] = experiment: Biofilm formation inhibition and biofilm eradication; format: cell-based, Acinetobacter baumannii
Text: However, there was no significant difference between PGG and control with regards to biofilm promotion or inhibition at any concentration tested and no dose-response trend was noted.

[3] = in vivo; cited from earlier work
Acinetobacter baumannii = experiment: Growth inhibition of Acinetobacter baumannii (CRAB and susceptible strains); format: cell-based; details: for IC50 / MIC: Acinetobacter baumannii
Protocol: A natural products library was screened for growth inhibition of CRAB. Lead extracts were then tested in serial dilution and nine extracts from seven species were chosen for further study based on activity. Extract 429, made from the leaves of Schinus terebinthifolia, underwent bioassay-guided fractionation for growth inhibition (FIG. 1).
A library of botanical extracts generated from plants was screened for growth inhibition of CRAB. […] Bioassay-guided fractionation lead to the isolation of pentagalloyl glucose (PGG), a bioactive gallotannin. […] Topical applications of PGG, such as wound rinses and dressings, are contemplated. […]

Candida albicans = experiment: Growth inhibition of Candida species; format: cell-based
Protocol: (§1) The activity of PGG was tested for growth inhibition against two susceptible strains and 6 drug resistant strains from three Candida species (Table 2). […] The activity of PGG followed a dose-response curve against tested strains. Typically the strains tested had MICs less than 2 μg/mL. Candida glabrata (AR Bank #0335) yielded the highest MIC at 8 μg/mL.

Candida glabrata = experiment: Growth inhibition of Candida species; format: cell-based
Protocol: as §1

Candida auris = experiment: Growth inhibition of Candida species; format: cell-based; details: Candidozyma auris
Protocol: as §1

Candida tropicalis = experiment: Growth inhibition of Candida species; format: cell-based; details: Table 2, strain AR Bank #0345
Protocol: as §1

Candida parapsilosis = experiment: Growth inhibition of Candida species; format: cell-based; details: Lodderomyces parapsilosis
Protocol: as §1

## O=C(OC[C@H]1O[C@@H](OC(=O)c2cc(O)c(O)c(O)c2)[C@H](OC(=O)c2cc(O)c(O)c(O)c2)[C@@H](OC(=O)c2cc(O)c(O)c(O)c2)[C@@H]1OC(=O)c1cc(O)c(O)c(O)c1)c1cc(O)c(O)c(O)c1 [PGG, [(2R,3R,4S,5R,6S)-3,4,5,6-tetrakis[(3,4,5-trihydroxybenzoyl)oxy]oxan-2-yl]methyl 3,4,5-trihydroxybenzoate]
A. baumannii; PGG 256-2 μg/mL with 1 mM iron (II) sulfate
  change of growth inhibition on supplementation: attenuated growth inhibition
A. baumannii; PGG 256-2 μg/mL with 1 mM iron (III) sulfate
  change of growth inhibition on supplementation: attenuated growth inhibition
A. baumannii; PGG 256-2 μg/mL with 0.02% oleic acid
  change of growth inhibition on supplementation: no change in activity
A. baumannii; PGG 256-2 μg/mL with 0.02% polysorbate 80
  change of growth inhibition on supplementation: attenuated growth inhibition
A. baumannii AB5075 [1]
  restoration of bacterial growth after iron addition: can be attenuated by addition of iron
A. baumannii AB5075 [2]; AB5075, 0.5-64 μg/mL (sub-MIC)
  biofilm formation inhibition: did not exhibit any antibiofilm activity
A. baumannii AB5075 [2]; AB5075, 2-256 μg/mL
  biofilm eradication: did not exhibit any antibiofilm activity
A. baumannii AB5075 [2]; AB5075, 8-64 μg/mL, not significant
  biofilm formation relative to vehicle (DMSO) control: mild promotion of biofilm formation
[3]
  oral bioavailability: low oral bioavailability
Acinetobacter baumannii; A. baumannii
  growth inhibition compared to PGG isolated from S. terebinthifolia: identical growth inhibition
Acinetobacter baumannii; A. baumannii, high concentrations
  inhibition at which dose-response curves level off: 85-95%
Acinetobacter baumannii; A. baumannii strains tested in this study, read-out: median IC50 for growth inhibition
  IC50: 8 µg/mL (≈ 8.5 µM)
Acinetobacter baumannii; A. baumannii, strain not given, read-out: MIC
  MIC: 64 µg/mL (≈ 68 µM)
Acinetobacter baumannii; ATCC17978, strain ATCC17978, read-out: PGG IC50
  IC50: 8 µg/mL (≈ 8.5 µM)
Acinetobacter baumannii; ATCC17978, strain ATCC17978, read-out: PGG MIC
  MIC: > 256 µg/mL
Acinetobacter baumannii; fourteen strains, read-out: MICs of fourteen of the A. baumannii strains tested
  MIC: > 256 µg/mL
Acinetobacter baumannii; read-out: IC50s, range over strains, one susceptible and 23 drug resistant strains (19 CRAB)
  IC50: 8 µg/mL to 64 µg/mL and 8.5 µM to 68 µM
Acinetobacter baumannii; strain AB5075, read-out: PGG IC50
  IC50: 16 µg/mL (≈ 17 µM)
Acinetobacter baumannii; strain AB5075, read-out: PGG MIC
  MIC: 256 µg/mL (≈ 272 µM)
Acinetobacter baumannii; strain AR Bank #0033, read-out: PGG IC50
  IC50: 8 µg/mL (≈ 8.5 µM)
Acinetobacter baumannii; strain AR Bank #0033, read-out: PGG MIC
  MIC: > 256 µg/mL
Acinetobacter baumannii; strain AR Bank #0035, read-out: PGG IC50
  IC50: 8 µg/mL (≈ 8.5 µM)
Acinetobacter baumannii; strain AR Bank #0035, read-out: PGG MIC
  MIC: 256 µg/mL (≈ 272 µM)
Acinetobacter baumannii; strain AR Bank #0036, read-out: PGG IC50
  IC50: 16 µg/mL (≈ 17 µM)
Acinetobacter baumannii; strain AR Bank #0036, read-out: PGG MIC
  MIC: > 256 µg/mL
Acinetobacter baumannii; strain AR Bank #0037, read-out: PGG IC50
  IC50: 8 µg/mL (≈ 8.5 µM)
Acinetobacter baumannii; strain AR Bank #0037, read-out: PGG MIC
  MIC: > 256 µg/mL
Acinetobacter baumannii; strain AR Bank #0045, read-out: PGG IC50
  IC50: 8 µg/mL (≈ 8.5 µM)
Acinetobacter baumannii; strain AR Bank #0045, read-out: PGG MIC
  MIC: 128 µg/mL (≈ 136 µM)
Acinetobacter baumannii; strain AR Bank #0070, read-out: PGG IC50
  IC50: 16 µg/mL (≈ 17 µM)
Acinetobacter baumannii; strain AR Bank #0070, read-out: PGG MIC
  MIC: > 256 µg/mL
Acinetobacter baumannii; strain AR Bank #0102, read-out: PGG IC50
  IC50: 8 µg/mL (≈ 8.5 µM)
Acinetobacter baumannii; strain AR Bank #0102, read-out: PGG MIC
  MIC: > 256 µg/mL
Acinetobacter baumannii; strain AR Bank #0273, read-out: PGG IC50
  IC50: 8 µg/mL (≈ 8.5 µM)
Acinetobacter baumannii; strain AR Bank #0273, read-out: PGG MIC
  MIC: 128 µg/mL (≈ 136 µM)
Acinetobacter baumannii; strain AR Bank #0274, read-out: PGG IC50
  IC50: 64 µg/mL (≈ 68 µM)
Acinetobacter baumannii; strain AR Bank #0274, read-out: PGG MIC
  MIC: > 256 µg/mL
Acinetobacter baumannii; strain AR Bank #0275, read-out: PGG IC50
  IC50: 8 µg/mL (≈ 8.5 µM)
Acinetobacter baumannii; strain AR Bank #0275, read-out: PGG MIC
  MIC: > 256 µg/mL
Acinetobacter baumannii; strain AR Bank #0277, read-out: PGG IC50
  IC50: 8 µg/mL (≈ 8.5 µM)
Acinetobacter baumannii; strain AR Bank #0277, read-out: PGG MIC
  MIC: > 256 µg/mL
Acinetobacter baumannii; strain AR Bank #0278, read-out: PGG IC50
  IC50: 8 µg/mL (≈ 8.5 µM)
Acinetobacter baumannii; strain AR Bank #0278, read-out: PGG MIC
  MIC: > 256 µg/mL
Acinetobacter baumannii; strain AR Bank #0281, read-out: PGG IC50
  IC50: 8 µg/mL (≈ 8.5 µM)
Acinetobacter baumannii; strain AR Bank #0281, read-out: PGG MIC
  MIC: 128 µg/mL (≈ 136 µM)
Acinetobacter baumannii; strain AR Bank #0282, read-out: PGG IC50
  IC50: 16 µg/mL (≈ 17 µM)
Acinetobacter baumannii; strain AR Bank #0282, read-out: PGG MIC
  MIC: > 256 µg/mL
Acinetobacter baumannii; strain AR Bank #0283, read-out: PGG IC50
  IC50: 8 µg/mL (≈ 8.5 µM)
Acinetobacter baumannii; strain AR Bank #0283, read-out: PGG MIC
  MIC: > 256 µg/mL
Acinetobacter baumannii; strain AR Bank #0284, read-out: PGG IC50
  IC50: 8 µg/mL (≈ 8.5 µM)
Acinetobacter baumannii; strain AR Bank #0284, read-out: PGG MIC
  MIC: 64 µg/mL (≈ 68 µM)
Acinetobacter baumannii; strain AR Bank #0295, read-out: PGG IC50
  IC50: 8 µg/mL (≈ 8.5 µM)
Acinetobacter baumannii; strain AR Bank #0295, read-out: PGG MIC
  MIC: > 256 µg/mL
Acinetobacter baumannii; strain AR Bank #0299, read-out: PGG IC50
  IC50: 8 µg/mL (≈ 8.5 µM)
Acinetobacter baumannii; strain AR Bank #0299, read-out: PGG MIC
  MIC: 128 µg/mL (≈ 136 µM)
Acinetobacter baumannii; strain AR Bank #0300, read-out: PGG IC50
  IC50: 8 µg/mL (≈ 8.5 µM)
Acinetobacter baumannii; strain AR Bank #0300, read-out: PGG MIC
  MIC: 256 µg/mL (≈ 272 µM)
Acinetobacter baumannii; strain NR-9667, read-out: PGG IC50
  IC50: 16 µg/mL (≈ 17 µM)
Acinetobacter baumannii; strain NR-9667, read-out: PGG MIC
  MIC: 256 µg/mL (≈ 272 µM)
Acinetobacter baumannii; strain Naval-81, read-out: PGG IC50
  IC50: 16 µg/mL (≈ 17 µM)
Acinetobacter baumannii; strain Naval-81, read-out: PGG MIC
  MIC: > 256 µg/mL
Acinetobacter baumannii; strain OIFC143, read-out: PGG IC50
  IC50: 8 µg/mL (≈ 8.5 µM)
Acinetobacter baumannii; strain OIFC143, read-out: PGG MIC
  MIC: 128 µg/mL (≈ 136 µM)
Acinetobacter baumannii; CRAB, fractions of extract 429
  activity in bioassay-guided fractionation for growth inhibition: most active constituent
Acinetobacter baumannii; strain ATCC17978
  PGG MIC: >256 µg/mL
Candida albicans; Candida albicans, Table 2, strain ARMH12 (Flc^R)
  IC50: 0.5 µg/mL (≈ 0.532 µM)
Candida albicans; Candida albicans, Table 2, strain ARMH12 (Flc^R), read-out: MIC
  MIC: 1 µg/mL (≈ 1.06 µM)
Candida albicans; Candida albicans, Table 2, strain ATCC10231
  IC50: 0.25 µg/mL (≈ 0.266 µM)
Candida albicans; Candida albicans, Table 2, strain ATCC10231, read-out: MIC
  MIC: 0.5 µg/mL (≈ 0.532 µM)
Candida albicans; Candida albicans, Table 3, strain ATCC90028
  IC50: 1 µg/mL (≈ 1.06 µM)
Candida albicans; Candida albicans, Table 3, strain ATCC90028, read-out: MIC
  MIC: 2 µg/mL (≈ 2.13 µM)
Candida albicans; Table 3, strain MH12
  MIC: 1.0 µg/mL (≈ 1.06 µM)
Candida glabrata; Nakaseomyces glabratus, Table 2, strain AR Bank #0325
  IC50: 0.5 µg/mL (≈ 0.532 µM)
Candida glabrata; Nakaseomyces glabratus, Table 2, strain AR Bank #0325, read-out: MIC
  MIC: 1 µg/mL (≈ 1.06 µM)
Candida glabrata; Nakaseomyces glabratus, Table 3, strain AR Bank #0325
  IC50: 0.5 µg/mL (≈ 0.532 µM)
Candida glabrata; Nakaseomyces glabratus, Table 3, strain AR Bank #0325, read-out: MIC
  MIC: 1 µg/mL (≈ 1.06 µM)
Candida glabrata; Nakaseomyces glabratus, Table 3, strain AR Bank #0326
  IC50: 0.25 µg/mL (≈ 0.266 µM)
Candida glabrata; Nakaseomyces glabratus, Table 3, strain AR Bank #0326, read-out: MIC
  MIC: 0.5 µg/mL (≈ 0.532 µM)
Candida glabrata; Nakaseomyces glabratus, Table 3, strain AR Bank #0335
  IC50: 2 µg/mL (≈ 2.13 µM)
Candida glabrata; Nakaseomyces glabratus, Table 3, strain AR Bank #0335, read-out: MIC
  MIC: 8 µg/mL (≈ 8.5 µM)
Candida glabrata; Table 3, strain AR Bank #0335
  MIC: 8.0 µg/mL (≈ 8.5 µM)
Candida auris; Table 2, strain AR Bank #0390
  MIC: 0.25 µg/mL (≈ 0.266 µM)
Candida auris; Table 2, strain AR Bank #0381
  IC50: 0.25 µg/mL (≈ 0.266 µM)
  MIC: 0.5 µg/mL (≈ 0.532 µM)
Candida tropicalis
  IC50: 0.25 µg/mL (≈ 0.266 µM)
  MIC: 1 µg/mL (≈ 1.06 µM)
Candida parapsilosis; Table 2, strain AR Bank #0337
  IC50: 0.5 µg/mL (≈ 0.532 µM)
  MIC: 1 µg/mL (≈ 1.06 µM)
Candida parapsilosis; Table 3, strain AR Bank #0337
  IC50: 1 µg/mL (≈ 1.06 µM)
  MIC: 1 µg/mL (≈ 1.06 µM)
Candida parapsilosis; Table 3, strain AR Bank #0338
  IC50: 0.5 µg/mL (≈ 0.532 µM)
  MIC: 1 µg/mL (≈ 1.06 µM)
Candida parapsilosis; Table 3, strain AR Bank #0339
  IC50: 1 µg/mL (≈ 1.06 µM)
  MIC: 2 µg/mL (≈ 2.13 µM)
